The values that follow come from ChEMBL document CHEMBL3044994, “Synthesis and evaluation of novel carbamate-substituted flavanone derivatives as potent acetylcholinesterase inhibitors and anti-amnestic agents” (Med Chem Res, 2013).

In one test the target is T1, Acetylcholinesterase (Rattus norvegicus, UniProt P37136).
T1 sequence (P37136 whole entry): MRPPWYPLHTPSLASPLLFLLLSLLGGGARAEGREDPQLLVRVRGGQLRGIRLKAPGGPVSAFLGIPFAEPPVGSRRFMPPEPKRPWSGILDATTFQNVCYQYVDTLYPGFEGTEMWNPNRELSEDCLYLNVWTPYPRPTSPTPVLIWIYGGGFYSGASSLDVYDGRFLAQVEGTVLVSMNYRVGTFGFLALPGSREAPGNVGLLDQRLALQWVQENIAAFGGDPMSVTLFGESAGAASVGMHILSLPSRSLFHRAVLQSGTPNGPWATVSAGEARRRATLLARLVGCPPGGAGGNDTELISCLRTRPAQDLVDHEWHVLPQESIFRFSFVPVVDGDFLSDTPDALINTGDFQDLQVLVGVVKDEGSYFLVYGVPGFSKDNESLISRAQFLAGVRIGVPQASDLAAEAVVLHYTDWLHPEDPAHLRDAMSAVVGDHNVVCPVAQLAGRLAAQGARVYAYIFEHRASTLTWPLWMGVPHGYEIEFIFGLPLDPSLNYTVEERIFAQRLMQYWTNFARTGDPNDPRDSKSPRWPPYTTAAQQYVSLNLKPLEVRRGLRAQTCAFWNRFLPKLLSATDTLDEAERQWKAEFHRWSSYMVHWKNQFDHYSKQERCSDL
Put plainly: Inhibition of AchE in Rattus norvegicus (rat) cortex homogenates by Ellman's method.

Test [1] relates to Mus musculus. Put plainly: Antiamnestic activity in scopolamine-induced Swiss albino Mus musculus (mouse) memory deficit model assessed as escape latency time at 2 mg/kg, ip administered 30 min prior to scopolamine challenge measured on day 4 by Morris water maze test (reference value: 78.7 +/- 5.7 secs). It is filed as functional. The note with it: route intraperitoneal.
Test [2] concerns Mus musculus. Put plainly: Antiamnestic activity in scopolamine-induced Swiss albino Mus musculus (mouse) memory deficit model assessed as escape latency time at 5 mg/kg, ip administered 30 min prior to scopolamine challenge measured on day 4 by Morris water maze test (reference value: 78.7 +/- 5.7 secs). It is filed as functional. As to conditions: route intraperitoneal.
The test system of test [3] is Mus musculus. Put plainly: Antiamnestic activity in scopolamine-induced Swiss albino Mus musculus (mouse) memory deficit model assessed as escape latency time at 10 mg/kg, ip administered 30 min prior to scopolamine challenge measured on day 1 by Morris water maze test (reference value: 89.7 +/- 3.8 secs). As to conditions: route intraperitoneal. In kind it is functional.

Test [4] deals with Mus musculus. The test can be described thus: Antiamnestic activity in scopolamine-induced Swiss albino Mus musculus (mouse) memory deficit model assessed as escape latency time at 10 mg/kg, ip administered 30 min prior to scopolamine challenge measured on day 4 by Morris water maze test (reference value: 78.7 +/- 5.7 secs). In kind it is functional. As to conditions: route intraperitoneal.

For test [5], the system named is Mus musculus. Put plainly: Antiamnestic activity in scopolamine-induced Swiss albino Mus musculus (mouse) memory deficit model assessed as escape latency time at 2 mg/kg, ip administered 30 min prior to scopolamine challenge measured on day 1 by Morris water maze test (reference value: 89.7 +/- 3.8 secs). It is filed as functional. As to conditions: route intraperitoneal.

Test [6] deals with Mus musculus. The test can be described thus: Antiamnestic activity in scopolamine-induced Swiss albino Mus musculus (mouse) memory deficit model assessed as increase in time spent in target quadrant at 2 to 10 mg/kg, ip administered 30 min prior to scopolamine challenge measured on day 5 by Morris water maze test relative to vehicle-treated control. It is filed as functional, organism-based.

Test [7] concerns Mus musculus. Put plainly: Antiamnestic activity in scopolamine-induced Swiss albino Mus musculus (mouse) memory deficit model assessed as escape latency time at 5 mg/kg, ip administered 30 min prior to scopolamine challenge measured on day 1 by Morris water maze test (reference value: 89.7 +/- 3.8 secs). In kind it is functional. As to conditions: route intraperitoneal.
The subject of test [8] is Mus musculus. The test can be described thus: Antiamnestic activity in scopolamine-induced Swiss albino Mus musculus (mouse) memory deficit model assessed as increase in time spent in target quadrant at 25 mg/kg, ip administered 30 min prior to scopolamine challenge measured on day 5 by Morris water maze test relative to vehicle-treated control. It is filed as functional, organism-based. The arrangement: dose 25 mg/kg.

Structures are written as SMILES. pIC50: −log10 of the molar value. Calls of active or inactive are those of the source. The rule behind the calls is not given here.

What is called pIC50 is −log10 of the IC50, conventionally taken in molar units. In turn, `COc1cc(C2CC(=O)c3ccccc3O2)cc(OC)c1O` (stereo unspecified) gave a pIC50 on Acetylcholinesterase of 6.88.
The same measure, in the same setting: the result for `COc1cc(OC)c2c(c1)OC(c1cccc(OC(=O)Nc3ccccc3)c1)CC2=O` (stereo unspecified) reads 7.71.
In the case of `O=C(Nc1ccccc1)Oc1cccc(C2CC(=O)c3ccccc3O2)c1` (stereo unspecified), the pIC50 on Acetylcholinesterase is 7.41.
Same read-out and setting: the same measure for `COc1ccc(C2CC(=O)c3ccccc3O2)cc1OC(=O)Nc1ccccc1` (stereo unspecified): 7.56; for `O=C1CC(c2cccc(O)c2)Oc2ccccc21` (stereo unspecified) [3'-HYDROXYFLAVANONE]: 6.83.
Consider `COc1cc(OC)c2c(c1)OC(c1cc(OC)c(OC(=O)Nc3ccccc3)c(OC)c1)CC2=O` (stereo unspecified), for which the Time was found to be 72.1 s with Mus musculus [1]; 66.4 s in the test with Mus musculus [2]; 83.1 s with Mus musculus [3]; 45.4 s in the test on Mus musculus [4]; 84.3 s in the test with Mus musculus [5]; 87.5 s with Mus musculus [7]. Also, the outcome with Mus musculus [6] was Active. For the same compound, the negative-log IC50 (pIC50) on Acetylcholinesterase is 8.00.
Consider `COc1cc(OC)c2c(c1)OC(c1ccc(OC(=O)Nc3ccccc3)c(OC)c1)CC2=O` (stereo unspecified), for which, on Acetylcholinesterase, the pIC50 was 7.89.
On the same count and under the same terms, the result for `COc1cc(OC)c2c(c1)OC(c1ccc(O)c(OC)c1)CC2=O` (stereo unspecified) reads 6.95; that for `O=C(Nc1ccccc1)Oc1ccc(C2CC(=O)c3ccccc3O2)cc1` (stereo unspecified), 7.44; that for `COc1cc(C2CC(=O)c3ccccc3O2)ccc1O` (stereo unspecified), 6.86.
The same measure, in the same setting: the same measure for `COc1cc(OC)c2c(c1)OC(c1cc(OC)c(OC(=O)Nc3ccccc3)c([N+](=O)[O-])c1)CC2=O` (stereo unspecified): 7.74.
Consider `COc1cc2c(cc1OC)C(=O)C(CC1CCN(Cc3ccccc3)CC1)C2` (stereo unspecified), for which the result in the test on Mus musculus [8] was Active.
Turning to `O=C1CC(c2ccc(O)cc2)Oc2ccccc21` (stereo unspecified) [4'-HYDROXY-FLAVANONE], on Acetylcholinesterase, the pIC50 was 6.84.
On the same count and under the same terms, the same measure for `COc1cc(OC)c2c(c1)OC(c1cc(OC)c(O)c(OC)c1)CC2=O` (stereo unspecified): 6.97.
As to `COc1cc(OC)c2c(c1)OC(c1cc(OC)c(O)c([N+](=O)[O-])c1)CC2=O` (stereo unspecified), the negative-log IC50 (pIC50) on Acetylcholinesterase is 6.94.
The compound `COc1cc(OC)c2c(c1)OC(c1cccc(O)c1)CC2=O` (stereo unspecified) gave a pIC50 against Acetylcholinesterase of 6.92. The pIC50 values of the last two compounds are within 0.2 log units of each other.
Compound `COc1cc(OC)c2c(c1)OC(c1ccc(O)cc1)CC2=O` (stereo unspecified) had a pIC50 against Acetylcholinesterase of 6.93. This pIC50 and that of the compound before are within 0.2 log units of each other.
The same measure, in the same setting: the result for `COc1cc(OO)cc2c1C(=O)CC(c1ccccc1OC(=O)Nc1ccccc1)O2` (stereo unspecified) reads 7.67; that for `COc1cc(OC)c2c(c1)OC(c1ccccc1O)CC2=O` (stereo unspecified), 6.92; that for `COc1cc(OC)c2c(c1)OC(c1ccc(OC)c(O)c1)CC2=O` (stereo unspecified), 6.94.
The same measure, in the same setting: the same measure for `COc1cc(OC)c2c(c1)OC(c1ccc(OC(=O)Nc3ccccc3)cc1)CC2=O` (stereo unspecified): 7.73; for `COc1ccc(C2CC(=O)c3ccccc3O2)cc1O` (stereo unspecified): 6.85.
Same read-out and setting: the same measure for `COc1cc(C2CC(=O)c3ccccc3O2)cc([N+](=O)[O-])c1O` (stereo unspecified): 6.84.
Consider `COc1cc(C2CC(=O)c3ccccc3O2)cc(OC)c1OC(=O)Nc1ccccc1` (stereo unspecified), for which, on Acetylcholinesterase, the pIC50 was 7.71.
`COc1cc(C2CC(=O)c3ccccc3O2)cc([N+](=O)[O-])c1OC(=O)Nc1ccccc1` (stereo unspecified) gave a pIC50 against Acetylcholinesterase of 7.52.
`COc1cc(C2CC(=O)c3ccccc3O2)ccc1OC(=O)Nc1ccccc1` (stereo unspecified) showed a negative logarithm of the IC50 (pIC50) on Acetylcholinesterase of 7.66.
Same read-out and setting: the same measure for `O=C1CC(c2ccccc2O)Oc2ccccc21` (stereo unspecified) [2'-HYDROXY-FLAVANONE]: 6.83; for `COc1cc(OC)c2c(c1)OC(c1ccc(OC)c(OC(=O)Nc3ccccc3)c1)CC2=O` (stereo unspecified): 7.79.
On the same count and under the same terms, the result for `O=C(Nc1ccccc1)Oc1ccccc1C1CC(=O)c2ccccc2O1` (stereo unspecified) reads 7.40.
